From article PMC11969438 (Inorganic Chemistry Frontiers, 2025)

Key:
[1] = biological target: T1, albumin (Bos taurus, UniProt P02769); assay: Albumin binding in fetal calf serum, SEC-ICP-MS; type: in vitro ADME; conditions: 50 μM in FCS, 37 °C, up to 24 h
T1 construct: Serum proteins have a retention span of ∼2–4 min as part of the high-molecular weight fraction with albumin at ∼4 min; tissue Sigma-Aldrich; host or cells: fetal calf serum (whole serum, buffered with 150 mM phosphate buffer pH 7.4)
Description: FCS was purchased from Sigma-Aldrich and buffered with 150 mM PB pH 7.4 to guarantee a stable pH. The platinum(IV) complexes were dissolved in 150 mM PB (pH 7.4) at a concentration of 5 mM and diluted 1 : 100 in the buffered serum to obtain a final concentration of 50 μM. The samples were then incubated in an autosampler at 37 °C and analyzed for 24 h. Between each sample, a pure water blank was measured. For SEC-ICP-MS measurements an Agilent 1260 Infinity system coupled to an Agilent 7800 ICP-MS equipped with a dynamic reaction cell was used. Oxygen (purity 5.5, Messer Austria GmbH, Gumpoldskirchen, Austria) was used as a reaction gas.

[2] = test system: immune cell populations in tumor and spleen; assay: Immune activation and infiltration by flow cytometry; type: in vivo, CT-26-bearing BALB/c mice; conditions: 24 h after second dose
Description: (§1) Tumor size was determined daily via manual caliper measurement. […] Animals were euthanized via cervical dislocation.
The generation and treatment of tumor-bearing mice are outlined in the section “In vivo syngraft experiments” above. Samples were kept on ice during the whole procedure. Tissues were prepared as described previously.[55] In brief, tumor and spleen tissues were collected and mechanically dissociated in DPBS buffer containing Ca^2+/Mg^2+ and FCS (5%). Tumor samples were digested using collagenase VIII (1 mg mL^−1) in a DPBS buffer (without Ca^2+/Mg^2+) supplemented with DNAse I (1 mg mL^−1) for 15 min at 37 °C under constant shaking. Samples were filtered using 70 μm cell strainers in a DPBS buffer (without Ca^2+/Mg^2+) containing FCS (5%), EDTA (5 mM) and DNase I (20 μg mL^−1). Subsequent washing steps were performed in DPBS buffer (without Ca^2+/Mg^2+) containing FCS (5%), EDTA (5 mM) and DNase I (20 μg mL^−1), unless indicated otherwise. Red blood cells were removed by short incubation with ACK buffer. For blocking, samples were incubated with the Ultra-LEAF purified anti-mouse CD16/CD32 antibody (clone: 93; #101330; RRID:AB_2783037; dilution: 1 : 1000) (Biolegend, San Diego, CA, USA) in the BD Horizon Brilliant Stain Buffer (#563794; BD Biosciences) for 10 min. Next, the samples were incubated with an antibody mixture in the BD Horizon Brilliant Stain Buffer for 30 min. Fluorescent dye-labeled antibodies targeting murine CD3 (17A2; #100203; RRID:AB_312661; 1 : 50), CD8a (53-6.7; #100738; RRID:AB_11204079; 1 : 160), CD19 (6D5; #115528; RRID:AB_493735; 1 : 400), CD49b (DX5; #108924; RRID:AB_2565271; 1 : 229), CD11b (M1/70; #101228; RRID:AB_893232; 1 : 80), and CD69 (H1.2F3; # 104512; RRID:AB_493564; 1 : 40) were purchased from BioLegend. The antibody targeting murine CD4 (RM4-5; # 85-0042-U100; 1 : 80) and the viability dye Ghost Dye Red 780 (#13-0865-T100; 1 : 1000) were purchased from Tonbobio (San Diego, CA, USA). The antibody targeting CD45 (30-F11; #363-0451-82; RRID:AB_2925264; 1 : 80) was purchased from Life Tech (Invitrogen). For intracellular staining of granzyme B (GzmB) (QA16A02; #372208; RRID:AB_2687032; 1 : 20) and FoxP3 (MF-14; #320014; RRID:AB_439750; 1 : 100) the True-Nuclear Transcription Factor Buffer Set (Biolegend; #424401) was used according to the manufacturer's recommendations. In brief, samples were incubated with Perm Fix Solution for 60 min at RT. Next, the samples were stained with antibodies targeting GzmB and FoxP3 (diluted in Perm buffer) for 30 min at RT. […] Next day, the samples were analyzed using a Cytek Aurora 5L (Cytek Biosciences, CA, USA) spectral flow cytometer. Data were analyzed using SpectroFlo (v3.2.1) (Cytek Biosciences) and FlowJo (v10.8.1) (FlowJo LLC, Ashland, OR, USA) software.

[3] = Cytokine and chemokine levels in plasma of treated animals, Luminex; type: in vivo, CT-26-bearing BALB/c mice; conditions: 24 h after second dose
Description: Next, the ProcartaPlex (96-well) multiplex assay panel was performed according to the manufacturer's recommendations. In brief, the capture bead mix was incubated with test samples (undiluted SN or mouse plasma) or standard mix overnight. The SN of three independent experiments or the plasma of four animals per treatment group was loaded onto the multiplex assay plate. Next, biotinylated detection antibody mix and Streptavidin-PE were added to the plate. Following the recommended washing steps, the samples were incubated in a reading buffer and were measured using a Luminex xMAP platform (Bio-Plex MAGPIX Multiplex Reader; Bio-Rad Laboratories) and analyzed using xPONENT software.
as §1

[4] = Body weight of treated animals; type: in vivo, CT-26-bearing BALB/c mice; conditions: peritumoral application
Description: as §1

[5] = test system: HCT116 cells; assay: MTT-based cell viability assay, 72 h; parameters: species or system human; conditions: without AA
Description: Cell models were seeded (2–2.5 × 10^3 cells per well) in 96-well plates. After 24 h of recovery, the compounds were applied at the concentrations indicated in triplicate. Cell viability was determined after 72 h of continuous drug incubation using an MTT-based cell viability assay (EZ4U, Biomedica, Vienna, Austria) according to the manufacturer's recommendations. Absorbance was measured at 450 nm (vs. 620 nm as reference) using a multimode microplate reader (Tecan Spark, Zurich, Switzerland). Half-maximal inhibitory concentrations (IC50 values) were derived via interpolation from dose–response curves, modeled with the four-parameter logistic (4PL) nonlinear regression model in GraphPad Prism (La Jolla, CA, USA) from at least three independent experiments.

T1 sequence (P02769 25-607): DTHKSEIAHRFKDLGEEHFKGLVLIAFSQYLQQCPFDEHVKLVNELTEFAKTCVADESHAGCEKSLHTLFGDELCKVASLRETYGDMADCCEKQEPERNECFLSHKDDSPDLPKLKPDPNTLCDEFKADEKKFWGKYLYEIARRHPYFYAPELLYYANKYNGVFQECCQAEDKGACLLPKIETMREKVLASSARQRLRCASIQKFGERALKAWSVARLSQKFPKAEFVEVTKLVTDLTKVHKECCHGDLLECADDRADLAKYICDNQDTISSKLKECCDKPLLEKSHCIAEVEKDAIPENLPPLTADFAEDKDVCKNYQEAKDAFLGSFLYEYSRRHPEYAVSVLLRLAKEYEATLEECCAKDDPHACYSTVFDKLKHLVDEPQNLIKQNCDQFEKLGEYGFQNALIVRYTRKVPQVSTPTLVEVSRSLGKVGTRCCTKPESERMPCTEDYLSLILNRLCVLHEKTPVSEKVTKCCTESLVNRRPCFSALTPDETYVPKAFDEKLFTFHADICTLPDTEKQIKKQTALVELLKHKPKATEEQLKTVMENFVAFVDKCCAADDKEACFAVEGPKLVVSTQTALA

SMILES | ability to conjugate to albumin [1] | FoxP3+ CD4+ T cell compartment in the spleen [2] | plasma IFN-β, IL-6 and M-CSF [3] | effect on body weights [4] | IC50 [5] | CD45+ cells among viable splenic cells [2] | splenic CD8+ T cells in the CD45+ cell population [2]
COCCOCCOCCOCCNC(=O)[O][Pt-2]12([O]C(=O)CCC(=O)c3cc4cc(OC)c(OC)cc4s3)([NH2+][C@@H]3CCCC[C@H]3[NH2+]1)[O]C(=O)C(=O)[O]2 [Ox-MSA-PEG-Ca, (OC-6-34)-[(1R,2R)-1,2-cyclohexanediamino]-oxalato-[4-(5,6-dimethoxybenzo[b]thiophen-2-yl)-4-oxobutylcarboxylato]-[3,6,9,12-tetraoxatridecan-1-amino]platinum(IV)] | lacked the ability to conjugate to albumin | selectively elevated | highest activations | without negative effects on body weights | – | – | –
O=C1[O][Pt]2([NH][C@@H]3CCCC[C@H]3[NH]2)[O]C1=O [oxaliplatin, reference compound] | – | – | – | – | 800 nM | significantly upregulated | strongest effect
